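Test compounds were applied to cells in 96-well plates for 48 hours at 5 doses. At the GI50, growth is halved. TGI is the concentration that stops growth completely.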
What was measured:
Test in all cases: NCI tumour cell line growth inhibition, 48 h
SNB-19 CNS = system: SNB-19 CNS
786-0 renal = system: 786-0 renal
OVCAR-5 ovarian = system: OVCAR-5 ovarian
MALME-3M melanoma = system: MALME-3M melanoma
NCI-H23 lung = system: NCI-H23 lung
HL-60(TB) leukemia = system: HL-60(TB) leukemia
RPMI-8226 leukemia = system: RPMI-8226 leukemia
RXF 393 renal = system: RXF 393 renal
U251 CNS = system: U251 CNS
KM12 colon = system: KM12 colon

Compound | TGI (SNB-19 CNS) [µM] | TGI (786-0 renal) [µM] | TGI (OVCAR-5 ovarian) [µM] | TGI (MALME-3M melanoma) [µM] | TGI (NCI-H23 lung) [µM] | TGI (HL-60(TB) leukemia) [µM] | TGI (RPMI-8226 leukemia) [µM] | TGI (RXF 393 renal) [µM] | GI50 (SNB-19 CNS) [µM] | GI50 (786-0 renal) [µM] | GI50 (OVCAR-5 ovarian) [µM] | GI50 (MALME-3M melanoma) [µM] | GI50 (NCI-H23 lung) [µM] | GI50 (U251 CNS) [µM] | TGI (U251 CNS) [µM] | GI50 (HL-60(TB) leukemia) [µM] | GI50 (RPMI-8226 leukemia) [µM] | GI50 (RXF 393 renal) [µM] | GI50 (KM12 colon) [µM] | TGI (KM12 colon) [µM]
O=C(c1ccccc1)C1OC12C(=O)Nc1ccccc12 (stereo not given) | > 100 | > 100 | > 100 | > 100 | 89.4 | 9.73 | 84.9 | 54.7 | – | – | – | – | – | – | – | – | – | – | – | –
O=C1Nc2ccc(F)cc2/C1=C/c1ccc[nH]1 | > 25 | > 25 | > 25 | > 25 | > 25 | > 25 | > 25 | > 25 | > 25 | > 25 | > 21.3 | > 25 | > 25 | > 25 | > 25 | > 25 | > 25 | > 18.3 | 0.787 | > 25
COc1ccc(OC)c2c(C(=O)O)c(Cc3ccccc3)ccc12 | > 100 | > 100 | > 100 | > 100 | > 100 | > 100 | – | > 100 | – | – | – | – | – | – | > 100 | – | – | – | – | > 100
CC(=O)O[C@]12CCCCCC1C1(O)C(O)CCCC[C@H]12 (stereo not given in full) | > 100 | > 100 | – | > 100 | > 100 | > 100 | > 100 | > 100 | – | – | – | – | – | – | > 100 | – | – | – | – | > 100
CC(CO)(CO)NCCCCn1ccc2c1C(=O)c1c(c(O)c3ccccc3c1O)C2=O | 42.2 | 26.9 | 29.5 | 7.38 | 36.4 | > 100 | – | 31.7 | 18.4 | 10.9 | 16 | 1.69 | 15.8 | – | – | 2.37 | – | 4.49 | 1.4 | 2.7
Br[C](Br)(Br)[Hg][c]1ccccc1 | 30.6 | 30.2 | 28.8 | 3.99 | 23 | 6.62 | 70.6 | 21.5 | 16.6 | 16.2 | 15.4 | 1.31 | 9.3 | 13.9 | 27.6 | 2.28 | 18.9 | 8.55 | 15.6 | 29.4
CC1=C(O)C(=O)C=C2C1=CC=C1[C@@]2(C)CC[C@@]2(C)[C@@H]3C[C@](C)(C(=O)O)CC[C@]3(C)CC[C@]12C | 0.23 | 0.0294 | 0.332 | 0.152 | 0.181 | 0.0585 | 0.0585 | 0.024 | – | – | – | – | – | – | 0.139 | – | – | – | – | 0.412
CCOC(=O)c1ccc(C)c(N=NN(C)C)c1 | > 100 | > 100 | > 100 | > 100 | > 100 | > 100 | > 100 | > 100 | – | – | – | – | – | – | > 100 | – | – | – | – | > 100
C/C(N=NC(=S)N(C)C)=C1\C=CC=CN1O | > 100 | > 52.2 | > 100 | > 67.2 | > 100 | > 53 | > 70.4 | > 100 | – | – | – | – | – | – | > 100 | – | – | – | – | > 100
CCCCCCCCCCCCCCCCCCOc1ccccc1CC(=O)OCC[N+]1(C)CCCC1 | – | 3.25 | 5.31 | 5.22 | – | 5.07 | – | 2.76 | – | 1.71 | 2.02 | 2.08 | – | – | – | 2.1 | – | 1.35 | 1.88 | 3.49
CN(C)C(=O)[C@H](O)[C@H](Cc1ccccc1)NC(=O)c1cc2cc(Cl)ccc2[nH]1 | > 100 | > 85.2 | 49.9 | 44.1 | > 100 | 54.1 | 66.6 | 62.9 | 26.1 | 27.3 | 19.1 | 16.2 | 25.8 | 17.9 | 42.5 | 19.1 | 19.5 | 20 | 27.2 | > 87.7
O=C1[C@@H]2C(c3ccccc3F)=NO[C@@H]2C(=O)N1c1ccc(Cc2ccc(N3C(=O)[C@H]4C(c5ccccc5F)=NO[C@H]4C3=O)cc2)cc1 | > 100 | > 100 | > 100 | > 100 | > 100 | 34.7 | > 83.3 | > 81.3 | – | – | – | – | – | – | > 100 | – | – | – | – | > 100
Nc1nc(F)nc2c1ncn2C1OC(CO)C(O)C1O (stereo not given) | > 100 | > 100 | > 100 | > 100 | > 88.3 | > 100 | > 100 | > 100 | 14.6 | 13.2 | – | 28.1 | 7.99 | 70.7 | > 100 | 3.3 | – | 97.6 | – | > 100
O=c1c2cc(Br)cc(Br)c2nc(CCCl)n1CCO | – | > 100 | > 100 | > 100 | > 100 | > 100 | > 100 | > 100 | – | – | – | – | – | – | > 100 | – | – | – | – | > 100
COc1ccc(C(=O)COc2ccc(/C=C3\COc4ccc(OC)cc4C3=O)cc2)cc1 | > 100 | 37.9 | 86.9 | > 100 | 32.8 | 62.8 | 22.6 | 47.6 | 29.8 | 16.7 | 30.2 | 57.2 | 9.67 | 13.4 | 31.2 | 11 | 3.47 | 21.2 | 8.72 | 85.8
ClCC[N+]12CC[N+](CCCl)(CC1)C2 | > 100 | > 100 | > 100 | > 100 | > 100 | > 100 | > 100 | > 100 | – | – | – | – | – | – | > 100 | – | – | – | – | > 100
O=C1CC2CCCC23CC2(CCN13)OCCO2 (stereo not given) | > 100 | > 100 | > 100 | > 100 | > 100 | > 100 | > 100 | > 100 | – | – | – | – | – | – | > 100 | – | – | – | – | > 100
ClCc1cccc(Cn2cnc3nc(Cl)nc(Cl)c32)c1 | 2.69 | 1.76 | 3.31 | 13 | 2.56 | 2.38 | 4.15 | 2.92 | 1.32 | 0.697 | 1.63 | 6.15 | 1.29 | 1.1 | 2.38 | 1.16 | 1.72 | 1.33 | 16.7 | 35.4
